According to patent US10266537B2, “3-acetylenyl-pyrazole-pyrimidine derivative, and preparation method therefor and uses thereof” (Si Chuan University, priority 2015, dated 2019):

Legend:
PKCγ(h) = PKCγ(h) (Homo sapiens (Human), UniProt P05129); assay: Kinase inhibition assay (KinaseProfiler, 33P-ATP); assay type: biochemical; settings: read-out: The percentage of the remaining active protein
PKCε(h) = PKCε(h) (Homo sapiens (Human), UniProt Q02156); assay: Kinase inhibition assay (KinaseProfiler, 33P-ATP); assay type: biochemical; settings: read-out: The percentage of the remaining active protein
Pim-3(h) = Pim-3(h) (Homo sapiens (Human), UniProt Q86V86); assay: Kinase inhibition assay (KinaseProfiler, 33P-ATP); assay type: biochemical; settings: read-out: The percentage of the remaining active protein
SNRK(h) = SNRK(h) (Homo sapiens (Human), UniProt Q9NRH2); assay: Kinase inhibition assay (KinaseProfiler, 33P-ATP); assay type: biochemical; settings: read-out: The percentage of the remaining active protein
Abl(T315I) = Abl(T315I) (Homo sapiens (Human), UniProt P00519, T315I); assay: Kinase inhibition assay (KinaseProfiler, 33P-ATP); assay type: biochemical; settings: Abl(T315I)(h); 10 μM; read-out: The percentage of the remaining active protein
SIK(h) = SIK(h) (Homo sapiens (Human), UniProt P57059); assay: Kinase inhibition assay (KinaseProfiler, 33P-ATP); assay type: biochemical; settings: read-out: The percentage of the remaining active protein
NEK9(h) = NEK9(h) (Homo sapiens (Human), UniProt Q8TD19); assay: Kinase inhibition assay (KinaseProfiler, 33P-ATP); assay type: biochemical; settings: read-out: The percentage of the remaining active protein
SAPK2a(T106M)(h) = SAPK2a(T106M)(h) (Homo sapiens (Human), UniProt Q16539, T106M); assay: Kinase inhibition assay (KinaseProfiler, 33P-ATP); assay type: biochemical; settings: read-out: The percentage of the remaining active protein
DRAK1(h) = DRAK1(h) (Homo sapiens (Human), UniProt Q9UEE5); assay: Kinase inhibition assay (KinaseProfiler, 33P-ATP); assay type: biochemical; settings: read-out: The percentage of the remaining active protein
PAR-1Bα(h) = PAR-1Bα(h) (Homo sapiens (Human), UniProt Q7KZI7); assay: Kinase inhibition assay (KinaseProfiler, 33P-ATP); assay type: biochemical; settings: read-out: The percentage of the remaining active protein
Chain of PAR-1Bα(h) (Q7KZI7 other isoform, or with tags, fused parts or gaps isoform Q7KZI7-4): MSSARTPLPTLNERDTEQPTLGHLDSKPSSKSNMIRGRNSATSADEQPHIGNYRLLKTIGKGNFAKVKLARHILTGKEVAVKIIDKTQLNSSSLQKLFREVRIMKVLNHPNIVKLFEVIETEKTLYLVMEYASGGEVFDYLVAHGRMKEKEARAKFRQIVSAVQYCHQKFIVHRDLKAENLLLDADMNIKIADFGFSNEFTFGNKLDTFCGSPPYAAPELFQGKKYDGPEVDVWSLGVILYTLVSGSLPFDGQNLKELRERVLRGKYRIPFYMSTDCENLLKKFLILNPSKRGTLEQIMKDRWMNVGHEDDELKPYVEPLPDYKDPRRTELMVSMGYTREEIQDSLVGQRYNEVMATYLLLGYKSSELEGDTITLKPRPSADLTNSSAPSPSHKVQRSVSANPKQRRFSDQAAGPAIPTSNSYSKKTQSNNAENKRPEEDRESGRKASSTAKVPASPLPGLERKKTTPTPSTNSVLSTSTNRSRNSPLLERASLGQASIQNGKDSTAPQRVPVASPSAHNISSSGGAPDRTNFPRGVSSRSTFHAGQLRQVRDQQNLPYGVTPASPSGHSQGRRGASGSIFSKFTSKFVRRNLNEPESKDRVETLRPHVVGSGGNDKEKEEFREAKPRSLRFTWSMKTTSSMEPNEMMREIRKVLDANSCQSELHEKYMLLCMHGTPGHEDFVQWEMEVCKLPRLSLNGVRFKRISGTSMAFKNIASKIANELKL

ZIPK(h) = ZIPK(h) (Homo sapiens (Human), UniProt O43293); assay: Kinase inhibition assay (KinaseProfiler, 33P-ATP); assay type: biochemical; settings: read-out: The percentage of the remaining active protein
Chain of ZIPK(h) (O43293 whole entry): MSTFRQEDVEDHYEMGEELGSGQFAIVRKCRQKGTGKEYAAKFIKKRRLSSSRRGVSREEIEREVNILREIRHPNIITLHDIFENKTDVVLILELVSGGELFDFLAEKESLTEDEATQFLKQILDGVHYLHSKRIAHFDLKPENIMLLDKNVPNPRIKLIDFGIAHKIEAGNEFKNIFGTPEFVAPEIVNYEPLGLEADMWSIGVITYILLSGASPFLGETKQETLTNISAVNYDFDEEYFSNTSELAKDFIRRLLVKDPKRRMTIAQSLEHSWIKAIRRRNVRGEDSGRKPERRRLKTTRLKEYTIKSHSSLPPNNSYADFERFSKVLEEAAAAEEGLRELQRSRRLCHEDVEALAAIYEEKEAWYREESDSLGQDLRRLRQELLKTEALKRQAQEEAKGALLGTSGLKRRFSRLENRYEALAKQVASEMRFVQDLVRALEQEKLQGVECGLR

Mer = Mer (Homo sapiens (Human), UniProt Q12866); assay: Kinase inhibition assay (KinaseProfiler, 33P-ATP); assay type: biochemical; settings: Mer(h), read-out: The percentage of the remaining active protein
Chain of Mer (Q12866 21-999): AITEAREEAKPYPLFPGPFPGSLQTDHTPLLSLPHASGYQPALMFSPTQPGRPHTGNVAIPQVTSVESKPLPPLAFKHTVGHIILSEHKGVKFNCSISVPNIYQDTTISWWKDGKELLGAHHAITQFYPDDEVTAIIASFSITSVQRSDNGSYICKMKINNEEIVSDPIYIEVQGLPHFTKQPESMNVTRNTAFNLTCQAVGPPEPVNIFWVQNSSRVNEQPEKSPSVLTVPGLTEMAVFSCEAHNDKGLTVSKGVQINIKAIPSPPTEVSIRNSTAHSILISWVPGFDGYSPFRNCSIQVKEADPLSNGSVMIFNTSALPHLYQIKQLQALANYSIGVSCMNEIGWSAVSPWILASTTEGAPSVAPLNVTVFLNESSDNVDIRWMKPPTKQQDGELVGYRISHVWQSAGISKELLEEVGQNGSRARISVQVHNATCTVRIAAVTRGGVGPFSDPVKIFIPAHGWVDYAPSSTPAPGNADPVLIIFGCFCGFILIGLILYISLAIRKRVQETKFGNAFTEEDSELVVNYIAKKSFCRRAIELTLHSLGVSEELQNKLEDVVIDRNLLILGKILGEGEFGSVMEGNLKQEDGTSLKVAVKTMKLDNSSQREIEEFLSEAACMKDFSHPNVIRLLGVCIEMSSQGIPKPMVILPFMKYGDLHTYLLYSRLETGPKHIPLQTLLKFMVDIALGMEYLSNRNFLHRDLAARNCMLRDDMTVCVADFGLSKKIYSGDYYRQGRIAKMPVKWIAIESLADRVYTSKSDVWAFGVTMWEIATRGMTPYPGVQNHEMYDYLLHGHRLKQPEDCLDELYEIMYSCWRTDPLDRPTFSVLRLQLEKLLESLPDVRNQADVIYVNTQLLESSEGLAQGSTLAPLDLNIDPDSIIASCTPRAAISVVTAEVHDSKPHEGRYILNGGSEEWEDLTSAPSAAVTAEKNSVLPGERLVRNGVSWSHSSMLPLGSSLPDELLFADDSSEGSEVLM

Abl(Y253F)(h) = Abl(Y253F)(h) (Homo sapiens (Human), UniProt P00519, Y253F); assay: Kinase inhibition assay (KinaseProfiler, 33P-ATP); assay type: biochemical; settings: read-out: The percentage of the remaining active protein
Aurora-B(h) = Aurora-B(h) (Homo sapiens (Human), UniProt Q96GD4); assay: Kinase inhibition assay (KinaseProfiler, 33P-ATP); assay type: biochemical; settings: read-out: The percentage of the remaining active protein
EGFR(T790M) = EGFR(T790M) (Homo sapiens (Human), UniProt P00533, T790M); assay: Kinase inhibition assay (KinaseProfiler, 33P-ATP); assay type: biochemical; settings: EGFR(T790M)(h), read-out: The percentage of the remaining active protein
CaMKIIγ(h) = CaMKIIγ(h) (Homo sapiens (Human), UniProt Q13555); assay: Kinase inhibition assay (KinaseProfiler, 33P-ATP); assay type: biochemical; settings: read-out: The percentage of the remaining active protein
CDK9/cyclin T1(h) = CDK9/cyclin T1(h) (Homo sapiens (Human), UniProt P50750); assay: Kinase inhibition assay (KinaseProfiler, 33P-ATP); assay type: biochemical; settings: read-out: The percentage of the remaining active protein
ACK1 = ACK1 (Homo sapiens (Human), UniProt Q07912); assay: Kinase inhibition assay (KinaseProfiler, 33P-ATP); assay type: biochemical; settings: ACK1(h), read-out: The percentage of the remaining active protein
Chain of ACK1 (Q07912 whole entry): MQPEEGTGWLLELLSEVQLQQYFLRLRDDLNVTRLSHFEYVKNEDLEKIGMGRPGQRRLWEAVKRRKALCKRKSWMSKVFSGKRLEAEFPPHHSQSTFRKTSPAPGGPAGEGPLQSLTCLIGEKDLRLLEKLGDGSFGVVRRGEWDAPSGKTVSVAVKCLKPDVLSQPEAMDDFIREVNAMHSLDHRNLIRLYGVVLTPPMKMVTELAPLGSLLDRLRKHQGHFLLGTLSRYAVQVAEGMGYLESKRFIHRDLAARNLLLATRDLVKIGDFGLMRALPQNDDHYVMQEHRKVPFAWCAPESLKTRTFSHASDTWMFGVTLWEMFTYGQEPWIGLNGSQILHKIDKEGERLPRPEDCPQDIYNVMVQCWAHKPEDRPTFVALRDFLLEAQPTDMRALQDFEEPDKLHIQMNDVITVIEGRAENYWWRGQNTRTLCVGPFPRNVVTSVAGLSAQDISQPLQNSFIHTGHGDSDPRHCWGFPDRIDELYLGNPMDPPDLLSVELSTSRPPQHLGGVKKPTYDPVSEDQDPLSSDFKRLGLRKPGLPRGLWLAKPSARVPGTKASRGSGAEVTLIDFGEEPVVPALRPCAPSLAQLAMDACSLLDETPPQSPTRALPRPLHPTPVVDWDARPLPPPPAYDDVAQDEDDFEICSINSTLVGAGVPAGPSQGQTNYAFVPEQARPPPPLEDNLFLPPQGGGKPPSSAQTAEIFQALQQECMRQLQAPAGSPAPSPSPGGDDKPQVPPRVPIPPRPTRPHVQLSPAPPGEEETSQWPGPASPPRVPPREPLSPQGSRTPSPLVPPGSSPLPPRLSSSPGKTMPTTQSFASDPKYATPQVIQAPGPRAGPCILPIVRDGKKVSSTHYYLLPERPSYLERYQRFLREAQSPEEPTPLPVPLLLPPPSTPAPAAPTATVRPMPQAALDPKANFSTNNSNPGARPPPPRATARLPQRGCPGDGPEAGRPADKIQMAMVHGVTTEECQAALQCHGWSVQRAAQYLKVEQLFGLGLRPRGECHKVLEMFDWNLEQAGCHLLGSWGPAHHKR

[1] = biological target: PI3 Kinase (p110a(E545K)/p85a)(m) (Mus musculus (Mouse), UniProt P42337, E545K); assay: Kinase inhibition assay (KinaseProfiler, 33P-ATP); assay type: biochemical; settings: read-out: The percentage of the remaining active protein
IRE1(h) = IRE1(h) (Homo sapiens (Human), UniProt O75460); assay: Kinase inhibition assay (KinaseProfiler, 33P-ATP); assay type: biochemical; settings: read-out: The percentage of the remaining active protein
JNK3(h) = JNK3(h) (Homo sapiens (Human), UniProt P53779); assay: Kinase inhibition assay (KinaseProfiler, 33P-ATP); assay type: biochemical; settings: read-out: The percentage of the remaining active protein
Chain of JNK3(h) (P53779 whole entry): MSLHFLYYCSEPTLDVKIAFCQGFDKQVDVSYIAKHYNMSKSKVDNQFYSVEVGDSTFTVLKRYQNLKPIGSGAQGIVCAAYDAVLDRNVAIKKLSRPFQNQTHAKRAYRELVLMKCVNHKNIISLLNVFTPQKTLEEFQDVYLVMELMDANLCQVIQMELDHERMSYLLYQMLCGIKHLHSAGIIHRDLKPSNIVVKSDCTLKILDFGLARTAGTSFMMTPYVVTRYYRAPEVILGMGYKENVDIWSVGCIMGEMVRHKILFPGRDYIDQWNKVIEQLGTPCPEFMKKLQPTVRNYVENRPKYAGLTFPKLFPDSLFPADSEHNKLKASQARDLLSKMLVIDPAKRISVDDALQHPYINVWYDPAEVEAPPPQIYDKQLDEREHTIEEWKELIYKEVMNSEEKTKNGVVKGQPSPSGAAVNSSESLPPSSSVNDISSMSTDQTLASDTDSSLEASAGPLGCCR

PhKγ2(h) = PhKγ2(h) (Homo sapiens (Human), UniProt P15735); assay: Kinase inhibition assay (KinaseProfiler, 33P-ATP); assay type: biochemical; settings: read-out: The percentage of the remaining active protein
NEK2(h) = NEK2(h) (Homo sapiens (Human), UniProt P51955); assay: Kinase inhibition assay (KinaseProfiler, 33P-ATP); assay type: biochemical; settings: read-out: The percentage of the remaining active protein
Txk = Txk (Homo sapiens (Human), UniProt P42681); assay: Kinase inhibition assay (KinaseProfiler, 33P-ATP); assay type: biochemical; settings: Txk(h), read-out: The percentage of the remaining active protein
EphB3 = EphB3 (Homo sapiens (Human), UniProt P54753); assay: Kinase inhibition assay (KinaseProfiler, 33P-ATP); assay type: biochemical; settings: EphB3(h), read-out: The percentage of the remaining active protein
PI3KC2a(h) = PI3KC2a(h) (Homo sapiens (Human), UniProt O00443); assay: Kinase inhibition assay (KinaseProfiler, 33P-ATP); assay type: biochemical; settings: read-out: The percentage of the remaining active protein
GRK1(h) = GRK1(h) (Homo sapiens (Human), UniProt Q15835); assay: Kinase inhibition assay (KinaseProfiler, 33P-ATP); assay type: biochemical; settings: read-out: The percentage of the remaining active protein
Chain of GRK1(h) (Q15835 whole entry): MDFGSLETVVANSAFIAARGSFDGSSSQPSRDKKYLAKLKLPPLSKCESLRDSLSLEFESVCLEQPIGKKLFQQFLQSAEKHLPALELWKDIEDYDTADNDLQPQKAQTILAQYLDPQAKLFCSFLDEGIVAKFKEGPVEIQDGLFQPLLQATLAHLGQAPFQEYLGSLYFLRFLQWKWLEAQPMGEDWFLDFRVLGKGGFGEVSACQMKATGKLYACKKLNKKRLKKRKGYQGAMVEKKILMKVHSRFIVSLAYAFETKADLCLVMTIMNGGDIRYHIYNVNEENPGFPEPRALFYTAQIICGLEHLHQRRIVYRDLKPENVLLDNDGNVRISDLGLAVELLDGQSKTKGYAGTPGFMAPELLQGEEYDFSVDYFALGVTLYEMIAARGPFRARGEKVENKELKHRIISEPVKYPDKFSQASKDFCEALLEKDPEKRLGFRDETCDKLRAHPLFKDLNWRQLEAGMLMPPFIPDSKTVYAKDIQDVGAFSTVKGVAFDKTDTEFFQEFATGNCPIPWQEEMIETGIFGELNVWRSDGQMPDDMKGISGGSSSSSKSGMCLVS

GRK6(h) = GRK6(h) (Homo sapiens (Human), UniProt P43250); assay: Kinase inhibition assay (KinaseProfiler, 33P-ATP); assay type: biochemical; settings: read-out: The percentage of the remaining active protein
Haspin(h) = Haspin(h) (Homo sapiens (Human), UniProt Q8TF76); assay: Kinase inhibition assay (KinaseProfiler, 33P-ATP); assay type: biochemical; settings: read-out: The percentage of the remaining active protein
CK2α2(h) = CK2α2(h) (Homo sapiens (Human), UniProt P19784); assay: Kinase inhibition assay (KinaseProfiler, 33P-ATP); assay type: biochemical; settings: read-out: The percentage of the remaining active protein
MST1(h) = MST1(h) (Homo sapiens (Human), UniProt Q13043); assay: Kinase inhibition assay (KinaseProfiler, 33P-ATP); assay type: biochemical; settings: read-out: The percentage of the remaining active protein
Chain of MST1(h) (Q13043 whole entry): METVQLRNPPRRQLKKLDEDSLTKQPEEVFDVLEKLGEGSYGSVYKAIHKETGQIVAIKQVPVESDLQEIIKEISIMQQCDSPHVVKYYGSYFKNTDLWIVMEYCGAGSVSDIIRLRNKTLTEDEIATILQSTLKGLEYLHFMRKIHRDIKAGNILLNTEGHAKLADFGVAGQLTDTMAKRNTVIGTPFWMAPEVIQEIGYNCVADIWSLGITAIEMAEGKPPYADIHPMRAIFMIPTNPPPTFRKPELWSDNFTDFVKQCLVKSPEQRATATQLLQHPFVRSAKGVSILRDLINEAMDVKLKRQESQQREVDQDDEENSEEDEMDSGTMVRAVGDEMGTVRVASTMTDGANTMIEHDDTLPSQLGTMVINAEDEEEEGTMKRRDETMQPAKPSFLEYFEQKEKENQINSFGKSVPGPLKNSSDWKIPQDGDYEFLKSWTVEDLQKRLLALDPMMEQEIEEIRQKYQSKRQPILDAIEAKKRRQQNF

EphA4 = EphA4 (Homo sapiens (Human), UniProt P54764); assay: Kinase inhibition assay (KinaseProfiler, 33P-ATP); assay type: biochemical; settings: EphA4(h), read-out: The percentage of the remaining active protein
DCAMKL2(h) = DCAMKL2(h) (Homo sapiens (Human), UniProt Q8N568); assay: Kinase inhibition assay (KinaseProfiler, 33P-ATP); assay type: biochemical; settings: read-out: The percentage of the remaining active protein
PRAK(h) = PRAK(h) (Homo sapiens (Human), UniProt Q8IW41); assay: Kinase inhibition assay (KinaseProfiler, 33P-ATP); assay type: biochemical; settings: read-out: The percentage of the remaining active protein
U251 = assay: Cell proliferation inhibition assay (MTT); assay type: cell-based; settings: Homo sapiens, U-251, 72 hours, read-out: Proliferation inhibitory activity IC50
Procedure: The cells were seeded in 96-well plates with 200 μL of cell suspension per well and incubated overnight in a cell culture medium with a cell concentration of 1 2×10^4 cells/mL. The next day, the supernatant was discarded (the suspension cell was centrifuged before it) and the cells were treated with gradient concentrations of the test compound, respectively. […] After 72 hours, add 20 μL of MTT reagent at a concentration of 5 mg/mL per well. After incubation for 2-4 h, the supernatant was discarded and 150 μL of DMSO was added to each well. […] Relative cell proliferation inhibition rate=([MUT]-[MUT])×100%/[MUT]. The experiment was repeated at least 3 times. Experimental data were expressed as mean, data statistics using t test, P<0.05 for the difference was statistically significant.

Structure (SMILES): Cc1ccc(NC(=O)c2ccc(C)c(C(F)(F)F)c2)cc1C#Cc1nn([C@H]2CC[C@H](O)CC2)c2ncnc(N)c12 [Compound 93]
- remaining activity at 10 µM (PKCγ(h)): 90%
- remaining activity at 10 µM (PKCε(h)): 117%
- remaining activity at 10 µM (Pim-3(h)): 99%
- remaining activity at 10 µM (SNRK(h)): 92%
- remaining activity at 10 µM (Abl(T315I)): 1%
- remaining activity at 10 µM (SIK(h)): 7%
- remaining activity at 10 µM (NEK9(h)): 59%
- remaining activity at 10 µM (SAPK2a(T106M)(h)): 88%
- remaining activity at 10 µM (DRAK1(h)): 140%
- remaining activity at 10 µM (PAR-1Bα(h)): 98%
- remaining activity at 10 µM (ZIPK(h)): 110%
- remaining activity at 10 µM (Mer): 0%
- remaining activity at 10 µM (Abl(Y253F)(h)): 0%
- remaining activity at 10 µM (Aurora-B(h)): 475%
- remaining activity at 10 µM (EGFR(T790M)): 4%
- remaining activity at 10 µM (CaMKIIγ(h)): 90%
- remaining activity at 10 µM (CDK9/cyclin T1(h)): 113%
- remaining activity at 10 µM (ACK1): 4%
- remaining activity at 10 µM [1]: 87%
- remaining activity at 10 µM (IRE1(h)): 94%
- remaining activity at 10 µM (JNK3(h)): 40%
- remaining activity at 10 µM (PhKγ2(h)): 113%
- remaining activity at 10 µM (NEK2(h)): 117%
- remaining activity at 10 µM (Txk): 1%
- remaining activity at 10 µM (EphB3): 5%
- remaining activity at 10 µM (PI3KC2a(h)): 92%
- remaining activity at 10 µM (GRK1(h)): 94%
- remaining activity at 10 µM (GRK6(h)): 100%
- remaining activity at 10 µM (Haspin(h)): 93%
- remaining activity at 10 µM (CK2α2(h)): 92%
- remaining activity at 10 µM (MST1(h)): 109%
- remaining activity at 10 µM (EphA4): -2%
- remaining activity at 10 µM (DCAMKL2(h)): 102%
- remaining activity at 10 µM (PRAK(h)): 77%
- IC50 (U251): 100 nM
